Tested on: radiation dermatitis in rat skin
Experiment: Rat radiation dermatitis assay, topical application before irradiation
Format: in vivo
Description: To determine if PrC-210 could function as a topical radioprotector that could prevent radiation dermatitis when applied prior to a cancer patient's daily radiotherapy, a rat assay that realistically mimics human radiation dermatitis was created. This assay quantifies the severity of radiation dermatitis in rat skin 13 days after a single radiation dose of 17.33 Gy.
In this study, PrC-210 was applied to rat skin in an ethanol/water delivery vehicle four times in the 2 h before irradiation, and control rats received only topical vehicle before irradiation (FIG. 2). Additional drug/irradiation groups of three rats each received either the alkyl-thiol moiety or the alkyldiamine moiety from PrC-210 in the same delivery vehicle. Following the 17.33 Gy irradiation of a […] patch of dorsal skin on the rats' backs, rats were scored 13 days later.
Molecules were applied to skin in an alcohol/water delivery vehicle prior to receiving a 17.33 Gy radiation dose to the 1.5 cm×3.0 cm skin site. Radiation dermatitis severity (i.e., % of the site covered by scab material) was scored 13 days following irradiation.

With `CNCC(CS)CNC` [PrC-210, 3-(methyl-amino)-2-((methylamino)methyl)propane-l-thiol] the “topical radioprotective potency and efficacy compared with thiolated polyamines and other PrC-200 series aminothiols” value (radiodermatitis test groups) was “most potent and most effective topical aminothiol to date” and the “prevention of radiation dermatitis (% of the site covered by scab material)” value (topical in ethanol/water vehicle four times in the 2 h before single 17.33 Gy dose, scored 13 days later) was “completely prevent radiation dermatitis”.

— patent publication US20160243062A1, “SYNTHESIS AND GROWTH REGULATORY ACTIVITY OF A PROTOTYPE MEMBER OF A NEW FAMILY OF AMINOTHIOL RADIOPROTECTORS” (WISCONSIN ALUMNI RESEARCH FOUNDATION, priority 2012, published 2016)
